The text below walks through data of article PMC4737989 (European journal of medicinal chemistry, 2016).

Series [1] has as its target T1, VDR-LBD / Alexa Fluor-SRC2-3 coactivator peptide (Homo sapiens, UniProt P11473, DEL165-215).
T1 sequence (P11473 with tags, fused parts or gaps DEL165-215 limits assumed): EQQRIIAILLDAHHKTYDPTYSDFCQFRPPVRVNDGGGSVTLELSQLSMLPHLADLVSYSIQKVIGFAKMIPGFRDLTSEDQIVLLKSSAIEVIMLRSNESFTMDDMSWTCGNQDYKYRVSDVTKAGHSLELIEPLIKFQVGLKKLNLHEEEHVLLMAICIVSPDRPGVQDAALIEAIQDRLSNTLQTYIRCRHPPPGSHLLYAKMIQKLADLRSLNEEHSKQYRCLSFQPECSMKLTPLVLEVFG
Description: VDR-coactivator binding fluorescence polarization assay, competitive inhibition.

The target in series [2] is T1, VDR-LBD / Alexa Fluor-SRC2-3 coactivator peptide. Nature of the series: VDR-coactivator binding fluorescence polarization assay, agonistic binding. To be noted: without LG190178.
Another series has as its system HEK293T cells. To be noted: treated HEK293 cells, Cell-TiterGlo.
The test system of another series is VDR. To be noted: cited from earlier work.
Series [3] addresses T2, VP16-VDR-LBD / SRC1-GAL4 (Homo sapiens, UniProt P11473).
T2 sequence (P11473 127-423 limits assumed): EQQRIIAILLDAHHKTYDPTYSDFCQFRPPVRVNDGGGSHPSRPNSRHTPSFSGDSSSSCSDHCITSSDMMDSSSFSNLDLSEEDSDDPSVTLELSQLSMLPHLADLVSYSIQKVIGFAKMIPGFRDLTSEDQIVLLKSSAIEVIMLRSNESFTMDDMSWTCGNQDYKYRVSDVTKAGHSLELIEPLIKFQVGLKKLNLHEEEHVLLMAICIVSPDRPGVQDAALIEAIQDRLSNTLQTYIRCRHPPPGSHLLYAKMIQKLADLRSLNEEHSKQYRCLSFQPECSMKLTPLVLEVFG
Nature of the series: Two-hybrid assay in HEK293T cells, agonist mode. Type of series: cell-based.

The next series addresses T3, PPARα-Gal4 (Homo sapiens, UniProt Q07869).
T3 sequence (Q07869 1-468): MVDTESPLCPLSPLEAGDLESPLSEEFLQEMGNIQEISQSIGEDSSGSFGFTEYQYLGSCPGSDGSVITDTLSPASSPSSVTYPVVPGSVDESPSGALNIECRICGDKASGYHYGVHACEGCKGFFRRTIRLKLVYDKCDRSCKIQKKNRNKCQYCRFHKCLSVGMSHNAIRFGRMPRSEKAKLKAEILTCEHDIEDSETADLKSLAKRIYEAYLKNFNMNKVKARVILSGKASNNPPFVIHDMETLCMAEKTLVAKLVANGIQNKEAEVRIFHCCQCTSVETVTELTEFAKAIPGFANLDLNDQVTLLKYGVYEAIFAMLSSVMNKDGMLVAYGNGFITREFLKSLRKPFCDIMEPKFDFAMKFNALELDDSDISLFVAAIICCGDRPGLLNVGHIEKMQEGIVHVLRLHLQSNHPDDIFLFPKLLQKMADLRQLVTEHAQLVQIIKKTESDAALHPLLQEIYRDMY
Format: cell-based. As to conditions: HEK293 cells, luminescence.

Series [4] has as its target T2, VP16-VDR-LBD / SRC1-GAL4. Description: Two-hybrid assay in HEK293T cells, inhibition in the presence of 10 nM 1,25. Type of series: cell-based. To be noted: 10 nM 1,25(OH)2D3.
Another series relates to VDR target gene CYP24A1. Description: CYP24A1 gene regulation in DU145 cells by qRT-PCR. Format: cell-based. As to conditions: 7.5 μM, with 20 nM 1,25(OH)2D3, 18 hours.

SMILES strings stand for the structures.

Turning to `C=C1/C(=C\C=C2/CCC[C@]3(C)[C@@H]([C@H](C)CC(=O)O)CC[C@@H]23)C[C@@H](O)C[C@@H]1O` [Calcitroic Acid, calcitroic acid], in series [1] (ratio of IC50 values), the “Potency of VDR-SRC2-3 inhibition relative to LCA” value is “approximately six times more potent”. The “VDR-LBD recruitment of SRC2-3 coactivator peptide (in words)” value (“VDR-LBD recruitment” below) in series [2] is reported as “not able to support”.

Take `C[C@H](CCC(=O)O)[C@H]1CC[C@H]2[C@@H]3[C@@H](O)C[C@@H]4C[C@H](O)CC[C@]4(C)[C@H]3CC[C@]12C` [UDCA, ursodeoxycholic acid]: in the series with HEK293T cells, the “Toxicity LD50” value was above 150 µM.

Turning to `C[C@H](CCC(=O)O)[C@H]1CC[C@H]2[C@@H]3CC[C@@H]4C[C@H](O)CC[C@]4(C)[C@H]3CC[C@]12C` [LCA, lithocholic acid], the Reported cellular activity entry in the series with VDR was “approximately 10 μM”.

Turning to `COC(=O)CC[C@@H](C)[C@H]1CC[C@H]2[C@@H]3CC[C@@H]4C[C@H](O)CC[C@]4(C)[C@H]3CC[C@]12C` [LCME, lithocholic acid methyl ester], the “Inhibition of VDR-SRC2-3 binding (in words)” value in series [1] (fluorescence polarization, with LG190178) was “inactive”. For the same compound, the “Activation in the cellular VDR-SRC1 2-hybrid assay (in words)” value at VP16-VDR-LBD / SRC1-GAL4 [3] was “did not activate transcription”. Further, the “VDR-LBD recruitment” value in series [2] was “not able to support”.

Regarding `C[C@H](CCC(=O)O)[C@H]1CC[C@H]2[C@@H]3CC[C@@H]4C[C@H](O[C@@H]5O[C@H](C(=O)O)[C@@H](O)[C@H](O)[C@H]5O)CC[C@]4(C)[C@H]3CC[C@]12C` [LCA Gluc I, lithocholic acid glucuronide I], on PPARα-Gal4, the “Activation of transcription for the PPARα-Gal4 system” value is listed as “no activation of transcription”. Besides, the “Inhibition of VDR-SRC1 binding in the presence of 1,25(OH)2D3 (in words)” value (“Inhibition of VDR-SRC1 binding” for short) at VP16-VDR-LBD / SRC1-GAL4 [4] is reported as “no inhibition”.

As to `C[C@H](CCC(=O)O)[C@H]1CC[C@H]2[C@@H]3[C@H](O)C[C@@H]4C[C@H](O)CC[C@]4(C)[C@H]3CC[C@]12C` [CDCA, chenodeoxycholic acid], the “Toxicity LD50” value in the series on HEK293T cells was above 150 µM.

Take `CC(=O)O[C@@H]1CC[C@@]2(C)[C@H](CC[C@@H]3[C@@H]2CC[C@]2(C)[C@@H]([C@H](C)CCC(=O)O)CC[C@@H]32)C1` [LCA Acetate]: the “Inhibition of VDR-SRC1 binding” value on VP16-VDR-LBD / SRC1-GAL4 [4] was “No inhibition”. Further, the “VDR-LBD recruitment” value in series [2] was “not able to support”.

Consider `C[C@H](CCC(=O)O[C@@H]1O[C@H](C(=O)O)[C@@H](O)[C@H](O)[C@H]1O)[C@H]1CC[C@H]2[C@@H]3CC[C@@H]4C[C@H](O)CC[C@]4(C)[C@H]3CC[C@]12C` [LCA Gluc II, lithocholic acid glucuronide II], for which the “Activation of transcription for the PPARα-Gal4 system” value on PPARα-Gal4 was “no activation of transcription”. The “Inhibition of VDR-SRC1 binding” value at VP16-VDR-LBD / SRC1-GAL4 [4] is “no inhibition”. Further, the “Induction of CYP24A1 in the presence of 1,25(OH)2D3 (in words)” value with VDR target gene CYP24A1 is reported as “more pronounced”.
